In patent US10765648B2, “iNKT cell modulators and methods of using the same” (LUDWIG INSTITUTE FOR CANCER RESEARCH, priority 2011, dated 2020):
One block for each compound: values may come before it.

What was measured:
[1] = system: EG7 cells (EL4 cells transfected with full length ovalbumin); experiment: EG7 tumor regression in mice immunized with OVA plus lipid; assay type: in vivo; details: 800 μg OVA plus lipid four days after 1×10^6 EG7 cells
Method: Mice were injected with 1×10^6 EG7 cells (EL4 cells transfected with full length ovalbumin).

iNKT cells = experiment: In vivo anergy of iNKT cells after lipid preconditioning; set-up: species or system mice; details: for iNKT cell anergy (IFNγ 18 h after OVA and alphaGalCer at day zero): preconditioned with 100 ng lipid at day −28
Method: The following experiment was designed to assess the in vivo anergy of iNKT cells as defined by their ability to enhance antigen-specific T- and B-cell responses. Mice were pre-conditioned at day −28 with individual lipids shown in FIG. 12 (100 ng i.v. of either alphaGalCer, IMM47, IMM60, or IMM70). Eighteen hours later, mice were bled to assess iNKT cell activation, as defined by IFN-gamma (determined by ELISA(eBioscience)), results shown in FIG. 13. At day zero (28 days after lipid preconditioning), expression of the iNKT cell activation marker PD1 was measured in splenic iNKT cells (FIG. 14).
Eighteen hours later, iNKT cell activation was analyzed by IFNγ expression by ELISA (FIG. 15). At day 7, T cell responses were analyzed (FIG. 16).

human dendritic cells = experiment: Lysis of monocyte-derived dendritic cells cultured with human iNKT cells and lipid, PI staining; assay type: cell-based; details: 40 hours; for dendritic cell killing: various concentrations
Method: Monocyte-derived dendritic cells and human iNKT cells were cultured with various concentrations of each lipid for 40 hours and then PI stained to determine percent dendritic cell lysis (and percent survival).

iNKT cell TCR = target: T1, iNKT cell TCR (Homo sapiens, UniProt P15813); details: cited from earlier work
T1 sequence (P15813 20-301 limits assumed): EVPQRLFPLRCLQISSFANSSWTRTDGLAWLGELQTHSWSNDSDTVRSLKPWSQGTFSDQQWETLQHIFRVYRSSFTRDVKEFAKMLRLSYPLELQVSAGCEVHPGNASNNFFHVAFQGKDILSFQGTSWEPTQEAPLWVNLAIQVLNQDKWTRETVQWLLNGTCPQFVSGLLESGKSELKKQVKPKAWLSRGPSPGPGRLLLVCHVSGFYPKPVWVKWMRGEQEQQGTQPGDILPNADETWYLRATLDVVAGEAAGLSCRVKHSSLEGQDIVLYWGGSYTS

[2] = target: T2, human iNKT cell TCRs for hCD1d loaded with lipid (Homo sapiens, UniProt P15813); experiment: SPR of soluble human iNKT TCR binding to hCD1d-lipid complexes
T2 construct: made in house
T2 sequence (P15813 20-301 limits assumed): T1 sequence (P15813 20-301 limits assumed)
Excerpt: The binding kinetics of these ThrCer and α-GalCer analogue compounds were examined. To this end, bacterially-expressed hCD1d and β-2-microglobulin (β 2 M) molecules were refolded with the thioamide, and carbamate analogues of both α-GalCer and ThrCer by oxidative refolding chromatography, and then biotinylated. The urea analogues of α-GalCer and ThrCer could not be refolded, and therefore, no surface plasmon resonance (SPR) data are available for these molecules. Soluble human iNKT TCR was prepared. SPR experiments were used to measure the affinity and kinetics of human iNKT cell TCRs for hCD1d loaded with α-GalCer, ThrCer, and their thioamide and carbamate analogues (FIGS. 5A-5B). To this end, increasing concentrations of TCR were injected for 5 seconds over the indicated complex immobilized on the BIAcore chip until the specific binding reached its plateau. Kd and Bmax were calculated by fitting the data using non-linear regression binding kinetics model (FIGS. 5A-5B). Kinetic measurements for the koff were calculated using BIAevaluation software kit; kon values were calculated from the experimental koff and Kd.
Protein expression and purification: hCD1d and β2m were refolded with α-GalCer, IMM47, IMM60, IMM70 or IMM80 by oxidative chromatography. In summary, CD1d and β2m were overexpressed in E. coli BL21 using a prokaryotic expression system (Novagen, UK). […]

SMILES: CCCCCCCCCCCCCCCCCCCCCCCCCC(=O)N[C@H](CO[C@H]1CC[C@H](O)[C@H](O)[C@H]1O)[C@@H](O)[C@@H](O)CCCCCCCCCCCCCC [IMM60, N-((2R,3R,4S)-3,4-dihydroxy-1-(((1S,2R,3S,4S)-2,3,4-trihydroxycyclohexyl)oxy)octadecan-2-yl)hexacosanamide]
regression of established tumour [1]: induced regression of the established tumour
iNKT cell activation (IFN-gamma at 18 h, PD1 at 28 days) (iNKT cells; 100 ng i.v. preconditioning at day −28): stronger iNKT cell activation than IMM47, IMM70, or even alphaGalCer
iNKT cell anergy (IFNγ 18 h after OVA and alphaGalCer at day zero) (iNKT cells): highest iNKT cell anergy
dendritic cell killing (human dendritic cells): highest dendritic cell killing

SMILES: CCCCCCCCCCCCCCCCCCCCCCCCCC(=O)N[C@H](CO[C@H]1CCC[C@H](O)[C@H](O)[C@H]1O)[C@@H](O)[C@@H](O)CCCCCCCCCCCCCC [IMM70, N-((2R,3R,4S)-3,4-dihydroxy-1-(((1S,2R,3S,4S)-2,3,4-trihydroxycycloheptyl)oxy)octadecan-2-yl)hexacosanamide]
T-cell response (iNKT cells; day 7 after immunization of preconditioned mice): highest T-cell response
iNKT cell anergy (IFNγ 18 h after OVA and alphaGalCer at day zero) (iNKT cells): functional iNKT cells
percentage of DC lysis (human dendritic cells; concentrations lower than 5 ng/ml): very similar to the results obtained with IMM47

SMILES: CCCCCCCCCCCCCCCCCCCCCCCC(=O)NC(COC1OC(CO)C(O)C(O)C1O)C(O)C(O)CCCCC (stereo not shown) [OCH9 12]
Kd (iNKT cell TCR; OCH9 on CD1d): 123 ± 9.08 µM
k0 (on rate) (iNKT cell TCR; OCH9 on CD1d): 23000 ± 1000 M⁻¹ s⁻¹
koff (iNKT cell TCR; OCH9 on CD1d): 2.67 ± 0.12 s⁻¹
interaction with iNKT cell TCRs (iNKT cell TCR; recent study, versus α-GalCer): weaker interactions than α-GalCer

SMILES: CCCCCCCCCCCCCCCCCCCCCCCCCC(=O)N[C@@H](COC[C@H](O)[C@@H](O)CO)[C@H](O)[C@H](O)CCCCCCCCCCCCCC [ThrCer 2, threitolceramide]
iNKT cell anergy (IFNγ 18 h after OVA and alphaGalCer at day zero) (iNKT cells): weakest iNKT cell anergy
dendritic cell killing (human dendritic cells): lowest dendritic cell killing

kon ([2]; calculated from experimental koff and Kd): 2580 ± 90 M⁻¹ s⁻¹
koff ([2]; lipid on CD1d, read-out: experimental koff): 0.565 ± 0.008 s⁻¹
SMILES: CCCCCCCCCCCCCCCCCCCCCCCCCC(=O)N[C@@H](CO[C@H]1O[C@H](CO)[C@H](O)[C@H](O)[C@H]1O)[C@H](O)[C@H](O)CCCCCCCCCCCCCC [α-GalCer 1, α-galactosylceramide]
iNKT cell anergy (IFNγ 18 h after OVA and alphaGalCer at day zero) (iNKT cells): highest iNKT cell anergy
